What was measured:
[1] = UV absorption (UV-VIS spectra in 2-propanol, 1 mg/100 ml); format: physicochemical; parameters: UV absorbance at λmax (1 mg/100 ml): unit not given here; conditions: for UVB (280-320 nm) max. abs / UVB max. at λ [nm] / UVA (400-320 nm) max. abs / UVA max. at λ [nm]: solvent 2-Propanol, c 1 mg/100 ml; for UV-VIS λmax / UV absorbance at λmax (1 mg/100 ml): 1 mg/100 ml; for UV absorbance at λmax (1 mg/100 ml): value in brackets after λmax in the synthesis example
Experimental: FIG. 1: UV absorption spectra of 1-hydroxy-3-[(E)-3-(4-methoxyphenyl)-2-propenoyloxy]-2-oxopropane (Example 1a) and 1-hydroxy-3-(2-cyano-3,3-diphenylacryloyloxy)-2-oxopropane (Example 1b) (in each case measured in 2-propanol at a concentration of 1 mg/100 ml)
FIG. 2: UV absorption spectra of 3-[4-(3-hydroxy-2-oxopropoxymethyl)benzylidene]-4,7,7-trimethylbicyclo[2.2.1]heptan-2-one (Example 9), N-(2,3-dihydroxypropyl)-(E)-3-(4-methoxyphenyl)acrylamide (Example 10a) and N-(2,3-dihydroxypropyl)-N-methyl-(E)-3-(4-methoxyphenyl)acrylamide (Example 10b) (in each case measured in 2-propanol at a concentration of 1 mg/100 ml).

Row | SMILES | UVB (280-320 nm) max. abs [1] | UVB max. at λ [nm] [1] | UV-VIS λmax [1] | UV absorbance at λmax (1 mg/100 ml) [1] | further results
1 | COc1ccc(/C=C/C(=O)NCC(O)CO)cc1 (stereo not drawn) [drawing 94] | 0.914 | 289 nm | – | – | –
2 | CC12CCC(C(=O)/C1=C\c1ccc(COCC(=O)CO)cc1)C2(C)C (stereo not drawn) [3-[4-(3-hydroxy-2-oxopropoxymethyl)benzylidene]-4,7,7-trimethylbicyclo[2.2.1]heptan-2-one] | 0.874 | 296 nm | – | – | –
3 | COc1ccc(/C=C/C(=O)NCC(=O)CO)cc1 [Example 20, N-(3-hydroxy-2-oxopropyl)-(E)-3-(4-methoxyphenyl)acrylamide] | – | – | 294.0 nm | 0.941 | melting point: 160 to 162 °C
4 | CN(Cc1ccc(/C=C2\C(=O)C3CCC2(C)C3(C)C)cc1)CC(O)CO[Si](C)(C)C(C)(C)C (stereo not drawn) [3-[4-({[3-(tert-butyldimethylsilyloxy)-2-hydroxypropyl]-methylamino}methyl)benzylidene]-4,7,7-trimethylbicyclo[2.2.1]heptan-2-one] | 0.545 | 297 nm | – | – | –
5 | CCCCC(CC)COc1ccc(/C=C/C(=O)NCC(O)CO)cc1 (stereo not drawn) [drawing 89, N-(2,3-dihydroxypropyl)-(E)-[4-(2-ethylhexyloxyphenyl)]acrylamide] | 0.688 | 307.0 nm | – | – | –
6 | CN(C)c1ccc(C(=O)OCC(=O)CO)cc1 [Example 3, 3-Hydroxy-2-oxopropyl 4-dimethylaminobenzoate] | – | – | 311.0 nm | 1.213 | melting point: 129 to 131 °C
7 | CN(C)c1ccc(C(=O)OCC2COC(C)(C)O2)cc1 (stereo not drawn) [Example 4, 4-(4-Dimethylaminophenylcarbonyloxymethyl)-2,2-dimethyl-1,3-dioxolane] | – | – | 310.0 nm | 0.86 | –
8 | CN(C)c1ccc(C(=O)OCC(=O)CO[Si](C)(C)C(C)(C)C)cc1 [Example 2] | – | – | 299.0 nm | 0.67 | melting point: 91 to 92 °C
9 | CN(C)c1ccc(C(=O)NCC(O)CO[Si](C)(C)C(C)(C)C)cc1 (stereo not drawn) [drawing 84, N-[3-(tert-butyldimethylsilyloxy)-2-hydroxypropyl]-4-dimethylaminobenzamide] | 0.64 | 301.0 nm | – | – | –
10 | COc1ccc(/C=C/C(=O)NCC(O)CO[Si](C)(C)C(C)(C)C)cc1 (stereo not drawn) [Example 12, N-[3-(tert-butyldimethylsilyloxy)-2-hydroxypropyl]-(E)-3-(4-methoxyphenyl)acrylamide] | – | – | 291.0 nm | 0.481 | melting point: 107 to 109 °C
11 | CN(C)c1ccc(C(=O)NCC(O)CO)cc1 (stereo not drawn) [Example 10d, N-(2,3-dihydroxypropyl)-4-dimethylaminobenzamide] | – | – | 301.0 nm | 0.947 | melting point: 152 to 153 °C
12 | CN(C)c1ccc(C(=O)NCC(=O)CO[Si](C)(C)C(C)(C)C)cc1 [Example 19, N-[3-(tert-butyldimethylsilyloxy)-2-oxopropyl]-4-dimethylaminobenzamide] | – | – | 312.0 nm | 0.713 | –
13 | CN(C)c1ccc(C(=O)OCC(=O)CO)cc1 [drawing 83, 3-Hydroxy-2-oxopropyl 4-dimethylaminobenzoate] | 1.213 | 311.0 nm | – | – | –
14 | COc1ccc(/C=C/C(=O)N(C)CC(O)CO)cc1 (stereo not drawn) [Example 10b, N-(2,3-dihydroxypropyl)-N-methyl-(E)-3-(4-methoxyphenyl)acrylamide] | – | – | 301.0 nm | 0.934 | melting point: 81 to 83 °C
15 | CN(C)c1ccc(C(=O)NCC(=O)CO)cc1 [Example 22, N-(3-hydroxy-2-oxopropyl)-4-dimethylaminobenzamide] | – | – | 298.0 nm | 0.575 | –
16 | COc1ccc(/C=C/C(=O)OCC(O)CO)cc1 (stereo not drawn) | 0.881 | 302.0 nm | – | – | –
17 | CC12CCC(C(=O)/C1=C\c1ccc(CNCC(O)CO)cc1)C2(C)C (stereo not drawn) | 0.692 | 298.0 nm | – | – | –
18 | CN(C)c1ccc(C(=O)NCC(=O)CO[Si](C)(C)C(C)(C)C)cc1 [drawing 86, N-[3-(tert-butyldimethylsilyloxy)-2-oxopropyl]-4-dimethylaminobenzamide] | 0.713 | 312.0 nm | – | – | –
19 | CCCCC(CC)COc1ccc(/C=C/C(=O)NCC(=O)CO)cc1 (stereo not drawn) [drawing 90, N-(3-hydroxy-2-oxopropyl)-(E)-3-[4-(2-ethylhexyloxyphenyl)]acrylamide] | 0.706 | 307.5 nm | – | – | –

Row | SMILES | UVB (280-320 nm) max. abs [1] | UVB max. at λ [nm] [1] | UV-VIS λmax [1] | UV absorbance at λmax (1 mg/100 ml) [1] | further results
20 | COc1ccc(/C=C/C(=O)OCC(=O)COC(=O)/C=C/c2ccc(OC)cc2)cc1 [drawing 73] | 0.107 | 300.67 nm | – | – | –
21 | CC1(C)OCC(COc2ccc(C(=O)c3ccccc3)c(O)c2)O1 (stereo not drawn) | 0.473 | 286.1 nm | – | – | UVA (400-320 nm) max. abs [1]: 0.312; UVA max. at λ [nm] [1]: 328.3 nm
22 | CCCCC(CC)COc1ccc(/C=C/C(=O)NCC(O)CO)cc1 (stereo not drawn) [Example 10c, N-(2,3-dihydroxypropyl)-(E)-[4-(2-ethylhexyloxyphenyl)]acrylamide] | – | – | 307.0 nm | 0.688 | –
23 | CN(C)c1ccc(C(=O)OCC(O)CO[Si](C)(C)C(C)(C)C)cc1 (stereo not drawn) [Example 6, 3-(tert-Butyldimethylsilyloxy)-2-hydroxypropyl 4-dimethylaminobenzoate] | – | – | 310.0 nm | 1.01 | –
24 | COC(CO)(COCc1ccc(/C=C2\C(=O)C3CCC2(C)C3(C)C)cc1)OC (stereo not drawn) [3-[4-(3-hydroxy-2,2-dimethoxypropoxymethyl)benzylidene]-4,7,7-trimethylbicyclo[2.2.1]heptan-2-one] | 0.615 | 298.0 nm | – | – | –
25 | COc1ccc(/C=C/C(=O)NCC(O)CO)cc1 (stereo not drawn) [drawing 75] | 0.936 | 292.00 nm | – | – | –
26 | N#CC(C(=O)OCC(=O)COC(=O)C(C#N)=C(c1ccccc1)c1ccccc1)=C(c1ccccc1)c1ccccc1 [drawing 78, 1,3-Bis-(2-cyano-3,3-diphenylacryloyloxy)-2-oxopropane] | 0.031 | 304.0 nm | – | – | –
27 | CN(C)c1ccc(C(=O)NCC(O)CO)cc1 (stereo not drawn) [drawing 82] | 0.947 | 301.0 nm | – | – | –
28 | O=C(c1ccccc1)c1ccc(OCC(O)CO)cc1O (stereo not drawn) | 0.537 | 287.9 nm | – | – | UVA (400-320 nm) max. abs [1]: 0.363; UVA max. at λ [nm] [1]: 327.5 nm
29 | CN(C)c1ccc(C(=O)OCC(O)CO)cc1 (stereo not drawn) [Example 5, 2,3-Dihydroxypropyl 4-dimethylaminobenzoate] | – | – | 310.0 nm | 1.01 | –
30 | COc1ccc(/C=C/C(=O)NCC(=O)CO)cc1 [drawing 81, N-(3-hydroxy-2-oxopropyl)-(E)-3-(4-methoxyphenyl)acrylamide] | 0.941 | 294.0 nm | – | – | –
31 | COc1ccc(/C=C/C(=O)N(C)CC(O)CO)cc1 (stereo not drawn) [drawing 96] | 0.715 | 292 nm | – | – | –
32 | CN(Cc1ccc(/C=C2\C(=O)C3CCC2(C)C3(C)C)cc1)CC(O)CO (stereo not drawn) [3-(4-{[(2,3-Dihydroxypropyl)methylamino]methyl}benzylidene)-4,7,7-trimethylbicyclo[2.2.1]heptan-2-one] | 0.711 | 296 nm | – | – | –
33 | COc1ccc(/C=C/C(=O)OCC(=O)CO)cc1 [drawing 74] | 0.893 | 311.33 nm | – | – | –
34 | COc1ccc(/C=C/C(=O)OCC2COC(C)(C)O2)cc1 (stereo not drawn) | 0.796 | 306.0 nm | – | – | –
35 | CN(C)c1ccc(C(=O)NCC(=O)CO)cc1 [drawing 85, N-(3-hydroxy-2-oxopropyl)-4-dimethylaminobenzamide] | 0.575 | 298.0 nm | – | – | –
36 | COc1ccc(/C=C/C(=O)NCC(O)CO[Si](C)(C)C(C)(C)C)cc1 (stereo not drawn) [drawing 93] | 0.694 | 289 nm | – | – | –
37 | N#CC(C(=O)OCC(=O)CO)=C(c1ccccc1)c1ccccc1 [drawing 77, 1-Hydroxy-3-(2-cyano-3,3-diphenylacryloyloxy)-2-oxopropane] | 0.375 | 303.0 nm | – | – | –

Reference: patent US7863478B2, “UV filters” (Merck Patent GmbH, priority 2004, dated 2011)
